Source: US12059458B2, “Peptides and combination of peptides and scaffolds for use in immunotherapy against renal cell carcinoma (RCC) and other cancers” (Immatics Biotechnologies GmbH, priority 2015, dated 2024)

What was measured:
[1] = system: CD8+ T cells of healthy HLA-A*02 donors; assay: In vitro immunogenicity: T-cell priming with aAPCs loaded with peptide/MHC complexes and anti-CD28 antibody, pMHC multimer readout; type: cell-based, human; conditions: Table 10B
From the text: In order to obtain information regarding the immunogenicity of the TUMAPs of the present invention, the inventors performed investigations using an in vitro T-cell priming assay based on repeated stimulations of CD8+ T cells with artificial antigen presenting cells (aAPCs) loaded with peptide/MHC complexes and anti-CD28 antibody.
In order to perform in vitro stimulations by artificial antigen presenting cells loaded with peptide-MHC complex (pMHC) and anti-CD28 antibody, the inventors first isolated CD8+ T cells from fresh HLA-A*02 leukapheresis products via positive selection using CD8 microbeads (Miltenyi Biotec, Bergisch-Gladbach, Germany) of healthy donors obtained from the University clinics Mannheim, Germany, after informed consent.
PBMCs and isolated CD8+ lymphocytes were incubated in T-cell medium (TCM) until use consisting of RPMI-Glutamax (Invitrogen, Karlsruhe, Germany) supplemented with 10% heat inactivated human AB serum (PAN-Biotech, Aidenbach, Germany), 100 U/ml Penicillin/100 μg/ml Streptomycin (Cambrex, Cologne, Germany), 1 mM sodium pyruvate (CC Pro, Oberdorla, Germany), 20 μg/ml Gentamycin (Cambrex). 2.5 ng/ml IL-7 (PromoCell, Heidelberg, Germany) and 10 U/ml IL-2 (Novartis Pharma, Nümberg, Germany) were also added to the TCM at this step.
Generation of pMHC/anti-CD28 coated beads, T-cell stimulations and readout was performed in a highly defined in vitro system using four different pMHC molecules per stimulation condition and 8 different pMHC molecules per readout condition.
The purified co-stimulatory mouse IgG2a anti human CD28 Ab 9.3 (Jung et al., 1987) was chemically biotinylated using Sulfo-N-hydroxysuccinimidobiotin as recommended by the manufacturer (Perbio, Bonn, Germany). Beads used were 5.6 μm diameter streptavidin coated polystyrene particles (Bangs Laboratories, Illinois, USA).
pMHC used for positive and negative control stimulations were A*0201/MLA-001 (peptide […] (SEQ ID NO. 152) from modified Melan-A/MART-1) and A*0201/DDX5-001 ([…] from DDX5 (SEQ ID NO. 153)), respectively.
800.000 beads/200 μl were coated in 96-well plates in the presence of 4×12.5 ng different biotin-pMHC, washed and 600 ng biotin anti-CD28 were added subsequently in a volume of 200 μl. Stimulations were initiated in 96-well plates by co-incubating […] CD8+ T cells with 2×10^5 washed coated beads in 200 μl TCM supplemented with 5 ng/ml IL-12 (PromoCell) for 3 days at 37° C. Half of the medium was then exchanged by fresh TCM supplemented with 80 U/ml IL-2 and incubating was continued for 4 days at 37° C. This stimulation cycle was performed for a total of three times. For the pMHC multimer readout using 8 different pMHC molecules per condition, a two-dimensional combinatorial coding approach was used as previously described (Andersen et al., 2012) with minor modifications encompassing coupling to 5 different fluorochromes. Finally, multimeric analyses were performed by staining the cells with Live/dead near IR dye (Invitrogen, Karlsruhe, Germany), CD8-FITC antibody clone SK1 (BD, Heidelberg, Germany) and fluorescent pMHC multimers. For analysis, a BD LSRII SORP cytometer equipped with appropriate lasers and filters was used. Peptide specific cells were calculated as percentage of total CD8+ cells. Evaluation of multimeric analysis was done using the FlowJo software (Tree Star, Oregon, USA). In vitro priming of specific multimer+ CD8+ lymphocytes was detected by comparing to negative control stimulations.

HLA-A*02:01 = HLA-A*02:01 (Homo sapiens, UniProt P04439, D140Y/D185E/D98H/E176V/E277Q/G131W/G231S/I119V/I121R/I166T/I218V/L300P/L318F/N151K/N90K/P208A/P217A/Q86G/Q94H/R138H/R169H/T345S); assay: MHC binding assay (UV-ligand exchange, beta2m ELISA, peptide exchange yield); conditions: binding to HLA-A*02:01 ranged by peptide exchange yield, β2m ELISA
From the text: Candidate peptides for T cell based therapies according to the present invention were further tested for their MHC binding capacity (affinity). The individual peptide-MHC complexes were produced by UV-ligand exchange, where a UV-sensitive peptide is cleaved upon UV-irradiation, and exchanged with the peptide of interest as analyzed. Only peptide candidates that can effectively bind and stabilize the peptide-receptive MHC molecules prevent dissociation of the MHC complexes. To determine the yield of the exchange reaction, an ELISA was performed based on the detection of the light chain (β2m) of stabilized MHC complexes. The assay was performed as generally described in Rodenko et al. (Rodenko et al., 2006).
96 well MAXISorp plates (NUNC) were coated over night with 2 ug/ml streptavidin in PBS at room temperature, washed 4× and blocked for 1 h at 37° C. in 2% BSA containing blocking buffer. Refolded HLA-A*02:01/MLA-001 monomers served as standards, covering the range of 15-500 ng/ml. Peptide-MHC monomers of the UV-exchange reaction were diluted 100 fold in blocking buffer. Samples were incubated for 1 h at 37° C., washed four times, incubated with 2 ug/ml HRP conjugated anti-β2m for 1h at 37° C., washed again and detected with TMB solution that is stopped with […]. Absorption was measured at 450 nm. Candidate peptides that show a high exchange yield (preferably higher than 50%, most preferred higher than 75%) are generally preferred for a generation and production of antibodies or fragments thereof, and/or T cell receptors or fragments thereof, as they show sufficient avidity to the MHC molecules and prevent dissociation of the MHC complexes.

Peptide exchange (MHC class I binding score) (HLA-A*02:01) | Substance | Wells positive [%] [1]
++ (≥20% = ++) | 95 (KLTDVGIATL; listed as Homo sapiens) [compound 95] | ++++ (> = 70% = ++++)
++ (≥20% = ++) | 98 (KIPPVSPSI; listed as Homo sapiens) [compound 98] | ++++ (> = 70% = ++++)
